According to ChEMBL document CHEMBL6096677, “Discovery of HZS60 as a Novel Brain Penetrant NMDAR/TRPM4 Interaction Interface Inhibitor with Improved Activity and Pharmacokinetic Properties for the Treatment of Cerebral Ischemia” (J Med Chem, 2025):

How the values were obtained:
[1] = AUC (0 to t) in ICR mouse at 25 mg/kg, IG by LC-MS/MS analysis; type: ADME, organism-based; conditions: in vivo, po
[2] = Cmax in ICR mouse at 25 mg/kg, IG by LC-MS/MS analysis; type: ADME, organism-based; conditions: in vivo, po
[3] = MRT (0 to t) in ICR mouse at 25 mg/kg, IG by LC-MS/MS analysis; type: ADME, organism-based; conditions: in vivo, po
Cortical neurone [4] = assay: Neuroprotective activity against NMDA-induced excitotoxic cell death in C57BL/6 mouse primary cortical neurons assessed as cell viability at 10 uM by CCK8 assay (reference value: 16.31 +/- 3.19 %); type: functional; conditions: C57BL/6, Cortical neurone, read-out: Activity
[5] = MRT (0 to t) in ICR mouse at 5 mg/kg, iv by LC-MS/MS analysis; type: ADME, organism-based; conditions: in vivo
[6] = Cmax in ICR mouse at 5 mg/kg, iv by LC-MS/MS analysis; type: ADME, organism-based; conditions: in vivo
[7] = Tmax in ICR mouse at 5 mg/kg, iv by LC-MS/MS analysis; type: ADME, organism-based; conditions: in vivo
[8] = MRT (0 to infinity) in ICR mouse at 5 mg/kg, iv by LC-MS/MS analysis; type: ADME, organism-based; conditions: in vivo
[9] = AUC (0 to t) in ICR mouse at 5 mg/kg, iv by LC-MS/MS analysis; type: ADME, organism-based; conditions: in vivo
[10] = Clearance in ICR mouse at 5 mg/kg, iv by LC-MS/MS analysis; type: ADME, organism-based; conditions: in vivo
Cortical neurone [11] = assay: Neuroprotective activity against OGD/R-induced ischemic injury in C57BL/6 mouse primary cortical neurons assessed as cell viability at 10 uM by CCK8 assay (reference value: 21.96 +/- 10.86 %); type: functional; conditions: C57BL/6, Cortical neurone, read-out: Activity
[12] = AUC (0 to infinity) in ICR mouse at 5 mg/kg, iv by LC-MS/MS analysis; type: ADME, organism-based; conditions: in vivo
[13] = MRT (0 to infinity) in ICR mouse at 25 mg/kg, IG by LC-MS/MS analysis; type: ADME, organism-based; conditions: in vivo, po
[14] = Oral bioavailability in ICR mouse at 25 mg/kg by LC-MS/MS analysis; type: ADME, organism-based; conditions: in vivo
[15] = Apparent volume of distribution in ICR mouse at 5 mg/kg, iv by LC-MS/MS analysis; type: ADME, organism-based; conditions: in vivo, read-out: Vz
[16] = AUC (0 to infinity) in ICR mouse at 25 mg/kg, IG by LC-MS/MS analysis; type: ADME, organism-based; conditions: in vivo, po
[17] = Half life in ICR mouse at 5 mg/kg, iv by LC-MS/MS analysis; type: ADME, organism-based; conditions: in vivo
[18] = Tmax in ICR mouse at 25 mg/kg, IG by LC-MS/MS analysis; type: ADME, organism-based; conditions: in vivo, po
[19] = Half life in ICR mouse at 25 mg/kg, IG by LC-MS/MS analysis; type: ADME, organism-based; conditions: in vivo, po

Structure (SMILES)	viability at 10 µM (Cortical neurone [4]) [%]	also measured
CCN(CCN)Cc1cccc(Br)c1	63.2	AUC(0-t) [1]: 914 ng·h/mL; Cmax [2]: 348 ng/mL; MRT last [3]: 2.38 h; MRT last [5]: 1.76 h; Cmax [6]: 207 ng/mL; Tmax [7]: 4.98 min; MRT inf [8]: 2.15 h; AUC(0-t) [9]: 282 ng·h/mL; clearance [10]: 293 mL/min/kg; viability at 10 µM (Cortical neurone [11]): 26.5%; AUC(0-inf) [12]: 295 ng·h/mL; MRT inf [13]: 2.96 h; bioavailability [14]: 66.4%; Vd [15]: 44.1 L/kg; AUC(0-inf) [16]: 980 ng·h/mL; half-life [17]: 1.82 h; Tmax [18]: 0.583 h; half-life [19]: 2.07 h
CCN(CCN)Cc1cc(C#N)ccc1Br	77.8	
CCN(CCN)C(C)c1cccc(Br)c1F (configuration not stated)	77	viability at 10 µM (Cortical neurone [11]): 55.6%
CCN(CCN)Cc1cc(Br)ccc1F	87.1	
CCN(CCN)C(C)c1cc(C#N)ccc1F (configuration not stated)	82.4	viability at 10 µM (Cortical neurone [11]): 34.6%
CCN(CCN)Cc1cc(Br)ccc1Cl	84.9	
CCN(CCN)C1(c2cccc(Br)c2)CC1	39.1	
CCN(CCN)Cc1c(F)ccc(Br)c1F	97.9	
NC1CCN(Cc2cccc(Br)c2)C1 (configuration not stated)	20.1	
CCN(CCN)Cc1ccc(F)c(Br)c1	26.6	
CCN(CCN)Cc1cc(F)cc(C#N)c1	24	
CCN(CCN)Cc1cccc(Br)c1I	11.5	
CCN(CCN)Cc1cccc([N+](=O)[O-])c1	36	
CCN(CCN)C(C)c1cccc(C#N)c1 (configuration not stated)	85.7	viability at 10 µM (Cortical neurone [11]): 69.7%
CCN(CCN)C(C)c1cc(C#N)ccc1Br (configuration not stated)	55	
CCN(CCN)C(C)(C)c1cccc(Br)c1	52.5	
CCN(CCN)Cc1cc(Br)cc(C#N)c1	33	
CCN(CCN)C(C)c1c(F)ccc(Br)c1F (configuration not stated)	51.6	
CCN(CCN)Cc1cccc(Br)c1F	86.5	
NC1CCCN(Cc2cccc(Br)c2)C1 (configuration not stated)	33	
CCN(CCN)Cc1cccc(-c2ccccc2)c1	24.9	

Structure (SMILES)	viability at 10 µM (Cortical neurone [4]) [%]	also measured
CCCN(CCN)Cc1cccc(Br)c1	44.6	
CCN(CCNC)Cc1cccc(Br)c1	17.6	
CCN(CCN)Cc1cccc(C#N)c1F	79.7	
CCN(CCN)Cc1cc(C#N)ccc1Cl	86.5	
CCN(CCN)C(C)c1cccc(C#N)c1Br (configuration not stated)	67.4	viability at 10 µM (Cortical neurone [11]): 43.2%
CCN(CCN)C(C)c1cc(Br)ccc1Cl (configuration not stated)	81.6	viability at 10 µM (Cortical neurone [11]): 46.6%
CCN(CCN)Cc1cc(F)cc(Br)c1	18.3	
CCN(CCN1CCCC1)Cc1cccc(Br)c1	19.3	
CCN(CCN)Cc1cccc(Cl)c1	44.3	
CCN(CCN)Cc1ccc(Br)cc1	21.2	
CCN(CCN)C(C)c1cccc(Br)c1 (configuration not stated)	95.9	viability at 10 µM (Cortical neurone [11]): 53.2%
CCN(CCN)C(C)c1cc(Br)ccc1Br (configuration not stated)	46.6	
CCN(CCN(C)C)Cc1cccc(Br)c1	18.4	
CCN(CCN)Cc1c(F)ccc(C#N)c1F	90.4	
CCN(CCN)C(C)c1c(Cl)ccc(C#N)c1F (configuration not stated)	64.5	viability at 10 µM (Cortical neurone [11]): 38.8%
CCN(CCN)Cc1cccc(Br)c1Br	86.5	
CCN(CCN)Cc1ccccc1Br	46.2	
CCC(c1cccc(Br)c1)N(CC)CCN (configuration not stated)	38.3	
CCN(CCN)Cc1cccc(C#N)c1Cl	93.1	
CCN(CCN)C(C)c1cccc(C#N)c1F (configuration not stated)	70.4	viability at 10 µM (Cortical neurone [11]): 44.5%
CCN(CCN)C(C)c1cc(C#N)ccc1Cl (configuration not stated)	77.7	viability at 10 µM (Cortical neurone [11]): 61.1%

Structure (SMILES)	viability at 10 µM (Cortical neurone [4]) [%]	also measured
CCN(CCN)Cc1c(Cl)ccc(C#N)c1F	82.9	
CCN(CCN)Cc1c(F)ccc(C#N)c1Cl	88	
CCN(CCN)C(C)c1cccc(C#N)c1Cl (configuration not stated)	85.3	viability at 10 µM (Cortical neurone [11]): 59.8%
CCN(CCN)Cc1cccc(OC)c1	39.6	
CCN(CCN)Cc1cccc(C)c1	22.7	
CCN(CCN)Cc1cccc(I)c1	44	
CCN(CCN)Cc1ccc(Br)c(C#N)c1	22.2	
CCN(CCN)C(C)c1cc(Br)ccc1F (configuration not stated)	90.7	viability at 10 µM (Cortical neurone [11]): 36.6%
CCN(CCN)Cc1cccc(C(F)(F)F)c1	16.9	
CCN(CCN)Cc1cccc(C#N)c1Br	76.5	
CCN(CCN)Cc1cccc(C#N)c1	92.4	
CCN(CCN)Cc1ccc(Cl)c(C#N)c1	22.6	
CCN(CCCN)Cc1cccc(Br)c1	10.8	
CCN(CCN)Cc1cc(C#N)ccc1I	74.6	
CCN(CCN)Cc1cc(C#N)ccc1F	68.1	
CCN(CCN)Cc1ccc(F)c(C#N)c1	24.1	
CCN(CCN)Cc1cc(Br)ccc1Br	83.4	
CCN(CCN)C(C)c1c(F)ccc(C#N)c1Cl (configuration not stated)	70.5	viability at 10 µM (Cortical neurone [11]): 64.3%
CCN(CCN)Cc1cccc(F)c1	32	
CCN(CCN)Cc1cccc(Br)c1Cl	47.1	
